Reference: patent US5166208A, “Fredericamycin A derivatives” (Boston College, priority 1991, dated 1992)
Converted amounts (≈) assume the structure as drawn.

Experiments:
[1] = tested on: human colon tumor with low topo II activity (HCTVP); assay: In vitro microdilution inhibition, HCTVP; format: cell-based; conditions: 72 hours, 50% of cells killed
Description: (§1) As shown in Table III the compounds of the present invention exert an in vitro antitumor effect. The following cells lines were employed: human lung (A549); resistant human lung with low topo II activity (A549-VP); murine melanoma (B16); human colon tumor (HCT116); human colon tumor with elevated p170 levels (HCTVM); human colon tumor with low topo II activity (HCTVP); and another human colon carcinoma cell line (Moser). In the Table, the designation "NT" indicates the compound was not tested against the specified cell line. The cell lines were maintained in continuous culture at 37°, 5% CO2 and high humidity. Cells were harvested in log phase growth and suspended at concentration of 25,000 cells/mL. A […] aliquot was then added to each well (i.e., 3,750 cells per well) of a 96-well flat bottom plate and the cells were allowed to attach over a 24 hour period. After this 24 hour incubation, a 50 μL sample of the specified compound was added to the first (top) well of each column, and the remaining wells of each column serially diluted, 1:4, and allowed to incubate for 72 hours at 37° C., 5% CO2 and high humidity. Following incubation, 50 μL of freshly prepared stain solution was added to each well. After a 3 hour incubation at room temperature, absorbance was read at 450 nm on a microplate reader to determine the compound concentration at which 50% of the cells were killed, such concentration referred to as the "IC50 ".

[2] = tested on: human colon carcinoma cell line (Moser); assay: In vitro microdilution inhibition, Moser; format: cell-based; conditions: 72 hours, 50% of cells killed
Description: as §1

human lung (A549) = assay: In vitro microdilution inhibition, human lung A549; format: cell-based; conditions: A549, 72 hours, 50% of cells killed
Description: as §1

[3] = tested on: human colon tumor (HCT116); assay: In vitro microdilution inhibition, HCT116; format: cell-based; conditions: HCT-116, 72 hours, 50% of cells killed
Description: as §1

murine melanoma (B16) = assay: In vitro microdilution inhibition, B16; format: cell-based; conditions: Mus musculus; B16, 72 hours, 50% of cells killed
Description: as §1

p388 murine leukemia = assay: In vivo activity against p388 murine leukemia in an acute mouse model; conditions: for AWC (average weight change per mouse): before treatment to day five; for % T/C (mean survival time treated/control): 45 mg/kg
Protocol: CDF1 mice of both sexes weighing between 16 and 25 gm. were used, with a 2 gm. weight range and same sex and source used per experiment. BDF1 mice also were used with the same weight, sex and source parameters. Control and test animals were injected interperitoneally with suspension of 1×10^6 p388 murine leukemia cells (0.5 mL dose) on day 0. Groups of 4-6 mice were used for each dosage amount they were treated with 5 doses on day one. A group of ten saline treated control mice was included in each set of experiments. A 30 day protocol was employed with mean survival time in days being determined for each group of mice with the number of survivors at the end of the 30 day period being noted. The mice were weighed before treatment and again on day five. The values listed for average weight change (AWC) is the average weight change per mouse at the specified dose. The change in weight was taken as a measure of drug toxicity. A loss in weight of up to 2 grams is not considered excessive. The results were determined in terms of % T/C which is the ratio of the mean survival time of the treated group to the mean survival time of the saline treated group times 100.

[4] = tested on: human colon tumor with elevated p170 levels (HCTVM); assay: In vitro microdilution inhibition, HCTVM; format: cell-based; conditions: 72 hours, 50% of cells killed
Description: as §1

[5] = tested on: resistant human lung with low topo II activity (A549-VP); assay: In vitro microdilution inhibition, resistant human lung A549-VP; format: cell-based; conditions: A549VP, 72 hours, 50% of cells killed
Description: as §1

[6] = Mus musculus, P388, 720 h, CDF1 (mixed sex), 5 mg/kg, read-out: % T/C (mean survival time treated/control)
[7] = Mus musculus, P388, 720 h, CDF1 (mixed sex), 15 mg/kg, read-out: % T/C (mean survival time treated/control)

Structure (SMILES)	IC50 [1] [µg/mL]	IC50 [2] [µg/mL]	IC50 (human lung (A549)) [µg/mL]	IC50 [3] [µg/mL]	IC50 (murine melanoma (B16)) [µg/mL]	AWC (average weight change per mouse) (p388 murine leukemia; CDF1 (mixed sex), 5 mg/kg)	AWC (average weight change per mouse) (p388 murine leukemia; CDF1 (mixed sex), 15 mg/kg)	% T/C (mean survival time treated/control) (p388 murine leukemia; CDF1 (mixed sex))	response vs control in vivo at 5 mg/kg (p388 murine leukemia; [6]) [%]	response vs control in vivo at 15 mg/kg (p388 murine leukemia; [7]) [%]	IC50 [4] [µg/mL]	IC50 [5] [µg/mL]	other results
COCOc1cccc2c1C1(CC2)C(=O)c2c(O)c3c(c(O)c2C1=O)C(=O)C=CC3=O [Example 2, 2',3'-Dihydro-7'-(methoxymethoxy)-1H-indene-1'-spiro-2-[4,9-dihydroxy-2H-benz[f]indene-1,3,5,8-tetrone]]	0.29 (≈ 0.69 µM)	1.07 (≈ 2.55 µM)	0.36 (≈ 0.856 µM)	0.25 (≈ 0.595 µM)	0.14 (≈ 0.333 µM)	-0.1	-1.3	Toxic	105	110			
O=C1C=CC(=O)c2c(O)c3c(c(O)c21)C(=O)C1(CCc2cccc(O)c21)C3=O [Example 3, 2',3'-Dihydro-7'-hydroxy-1H-indene-1'-spiro-2-[4,9-dihydroxy-benz[f]indene-1,3,5,8-tetrone]]	0.86 (≈ 2.29 µM)	3.07 (≈ 8.16 µM)	1.14 (≈ 3.03 µM)	1.13 (≈ 3 µM)	0.88 (≈ 2.34 µM)								
CCOC(OCC)c1cc2cc3c(c(OCOC)c2c(OC)n1)C1(CC3)C(=O)c2c(O)c3c(c(O)c2C1=O)C(=O)C=CC3=O [Example 9, 6',7'-Dihydro-1-methoxy-9'-(methoxymethoxy-3-(diethoxymethyl)-spiro[2H-benz[f]indene-2,8'-8H]cyclopent[g]isoquinoline]-1,3,5,8-tetrone]	2.38 (≈ 3.94 µM)	4.4 (≈ 7.29 µM)	4.42 (≈ 7.32 µM)	0.71 (≈ 1.18 µM)	0.78 (≈ 1.29 µM)								
CCNC1=CC(=O)c2c(O)c3c(c(O)c2C1=O)C(=O)C1(CCc2cccc(O)c21)C3=O (stereo not shown) [Example 15, 2',3'-Dihydro-6-ethylamino-7'-hydroxy-1H-indene-1'-spiro-2-[4,9-dihydroxy-2H-benz[f]-indene-1,3,5,8-tetrone]]	0.05 (≈ 0.119 µM)		< 0.03	0.03 (≈ 0.0715 µM)	0.03 (≈ 0.0715 µM)	-0.1	-0.2	Toxic	100	115	0.03 (≈ 0.0715 µM)	0.05 (≈ 0.119 µM)	
COCOc1cccc2c1C1(CC2)C(=O)c2c(O)c3c(c(O)c2C1=O)C(=O)C(NCCO)=CC3=O (stereo not shown) [Example 16, 2',3'-Dihydro-7'-(methoxymethoxy)-1H-indene-1'-spiro-[4,9-dihydroxy-6-(2-hydroxyethylamino)-2H-benz[f]indene-1,3,5,8-tetrone]]	0.04 (≈ 0.0834 µM)		< 0.03	0.05 (≈ 0.104 µM)	0.03 (≈ 0.0626 µM)						0.06 (≈ 0.125 µM)	0.04 (≈ 0.0834 µM)	AWC (average weight change per mouse) (p388 murine leukemia; CDF1 (female only), 3.3 mg/kg): -0.1; AWC (average weight change per mouse) (p388 murine leukemia; CDF1 (female only), 10 mg/kg): -1.1; AWC (average weight change per mouse) (p388 murine leukemia; CDF1 (female only), 30 mg/kg): -2.6; response vs control in vivo at 3.3 mg/kg (p388 murine leukemia; Mus musculus, P388, 720 h, CDF1 (female only), 3.3 mg/kg, read-out: % T/C (mean survival time treated/control)): 95%; response vs control in vivo at 10 mg/kg (p388 murine leukemia; Mus musculus, P388, 720 h, CDF1 (female only), 10 mg/kg, read-out: % T/C (mean survival time treated/control)): 95%; response vs control in vivo at 30 mg/kg (p388 murine leukemia; Mus musculus, P388, 720 h, CDF1 (female only), 30 mg/kg, read-out: % T/C (mean survival time treated/control)): 130%
CCCCCc1cc2cc3c(c(O)c2c(=O)[nH]1)C1(CC3)C(=O)c2c(O)c3c(c(O)c2C1=O)C(=O)C(NCC)=CC3=O (stereo not shown) [Example 23, 2',6'7'-trihydro-4,9,9'-trihydroxy-3'-(n-pentyl)-6-ethylamino-spiro[2H-benz[f]-indene-2,8'-[8H]cyclopent[g]-isoquinoline]-1,1',3,5,8-pentone]	0.1 (≈ 0.18 µM)		0.14 (≈ 0.252 µM)	0.28 (≈ 0.503 µM)	0.39 (≈ 0.701 µM)						0.22 (≈ 0.395 µM)	0.1 (≈ 0.18 µM)	AWC (average weight change per mouse) (p388 murine leukemia; CDF1 (female only), 4 mg/kg): 1.8; AWC (average weight change per mouse) (p388 murine leukemia; CDF1 (female only), 12 mg/kg): 1.7; AWC (average weight change per mouse) (p388 murine leukemia; CDF1 (female only), 36 mg/kg): 0.7; response vs control in vivo at 4 mg/kg (p388 murine leukemia; Mus musculus, P388, 720 h, CDF1 (female only), 4 mg/kg, read-out: % T/C (mean survival time treated/control)): 100%; response vs control in vivo at 12 mg/kg (p388 murine leukemia; Mus musculus, P388, 720 h, CDF1 (female only), 12 mg/kg, read-out: % T/C (mean survival time treated/control)): 95%; response vs control in vivo at 36 mg/kg (p388 murine leukemia; Mus musculus, P388, 720 h, CDF1 (female only), 36 mg/kg, read-out: % T/C (mean survival time treated/control)): 100%
